Results: ChEMBL document CHEMBL5352481, “Discovery of small-molecule protein stabilizers toward exogenous alpha-l-iduronidase to reduce the accumulated heparan sulfate in mucopolysaccharidosis type I cells” (Eur J Med Chem, 2023)
Activity calls are given as the source filed them. The rule behind the calls is not given here.

Legend:
Alpha-L-iduronidase [1] = biological target: T1, Alpha-L-iduronidase (Homo sapiens, UniProt P35475); experiment: Inhibition of human recombinant alpha-L-iduronidase using 4-methylumbelliferyl-alpha-iduronide as fluorogenic substrate
T1 sequence (P35475 whole entry): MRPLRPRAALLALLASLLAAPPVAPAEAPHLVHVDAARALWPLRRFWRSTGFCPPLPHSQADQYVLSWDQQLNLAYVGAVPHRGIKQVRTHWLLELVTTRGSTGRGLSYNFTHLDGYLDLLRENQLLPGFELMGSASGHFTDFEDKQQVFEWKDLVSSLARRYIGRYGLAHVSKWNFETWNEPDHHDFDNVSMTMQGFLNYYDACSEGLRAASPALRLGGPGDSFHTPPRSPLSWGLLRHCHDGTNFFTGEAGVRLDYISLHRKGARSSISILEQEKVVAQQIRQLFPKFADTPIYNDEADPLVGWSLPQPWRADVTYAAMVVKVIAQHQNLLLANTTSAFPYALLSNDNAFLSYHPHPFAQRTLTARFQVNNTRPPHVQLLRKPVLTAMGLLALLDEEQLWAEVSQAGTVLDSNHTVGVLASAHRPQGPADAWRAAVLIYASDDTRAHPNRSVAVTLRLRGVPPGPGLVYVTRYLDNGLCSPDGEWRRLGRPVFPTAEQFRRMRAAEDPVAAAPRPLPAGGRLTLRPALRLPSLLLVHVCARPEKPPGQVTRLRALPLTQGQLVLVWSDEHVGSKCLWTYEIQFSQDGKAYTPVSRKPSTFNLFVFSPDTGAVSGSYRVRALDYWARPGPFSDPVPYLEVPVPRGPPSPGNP

[2] = biological target: T2, Alpha-L-iduronidase (Homo sapiens) (UniProt P35475); experiment: Stabilization of human recombinant alpha-L-iduronidase in human GM01391 cells assessed as fold increase in IDUA activity at 100 uM incubated for 1 day followed by 1 day washout relative to control; type: cell-based
T2 sequence (whole entry): T1 sequence (P35475 whole entry)

[3] = biological target: T2, Alpha-L-iduronidase (Homo sapiens); experiment: Stabilization of human recombinant alpha-L-iduronidase in human GM01391 cells assessed as increase in IDUA activity at 100 uM incubated for 1 day followed by 1 day washout; type: cell-based
Alpha-L-iduronidase [4] = biological target: T1, Alpha-L-iduronidase; experiment: Inhibition of human alpha-L-iduronidase using 4-methylumbelliferyl-alpha-L-iduronide as substrate assessed as inhibition constant
[5] = biological target: T2, Alpha-L-iduronidase (Homo sapiens); experiment: Inhibition of human recombinant alpha-L-iduronidase using 4-methylumbelliferyl-alpha-L-iduronide as fluorogenic substrate at 0.1 mM relative to control
[6] = biological target: T2, Alpha-L-iduronidase (Homo sapiens); experiment: Inhibition of human recombinant alpha-L-iduronidase using 4-methylumbelliferyl-alpha-iduronide as fluorogenic substrate at 250 uM relative to control
Alpha-L-iduronidase [7] = biological target: T1, Alpha-L-iduronidase; experiment: Inhibition of alpha-L-iduronidase (unknown origin) assessed as inhibition constant
Alpha-L-iduronidase [8] = biological target: T1, Alpha-L-iduronidase; experiment: Inhibition of human recombinant alpha-L-iduronidase using 4-methylumbelliferyl-alpha-iduronide as fluorogenic substrate assessed as inhibition constant by Lineweaver-Burk plot analysis
[9] = biological target: T2, Alpha-L-iduronidase (Homo sapiens); experiment: Stabilization of human recombinant alpha-L-iduronidase in human GM01391 cells assessed as fold increase in IDUA activity at 500 uM incubated for 1 day followed by 1 day washout relative to control; type: cell-based
[10] = biological target: T2, Alpha-L-iduronidase (Homo sapiens); experiment: Stabilization of human recombinant alpha-L-iduronidase in human GM01391 cells assessed as fold increase in IDUA activity at 500 uM measured after 9 days relative to control; type: cell-based; details: time 9.0 day
[11] = biological target: T2, Alpha-L-iduronidase (Homo sapiens); experiment: Stabilization of human recombinant alpha-L-iduronidase in human GM01391 cells assessed as reduction in heparan sulfate level at 500 uM incubated for 1 day followed by 1 day washout; type: cell-based
[12] = biological target: T2, Alpha-L-iduronidase (Homo sapiens); experiment: Stabilization of human recombinant alpha-L-iduronidase in human GM02846 cells assessed as increase in IDUA activity incubated for 1 day followed by 1 day washout; type: cell-based; details: dose 10-500 µM
[13] = biological target: T2, Alpha-L-iduronidase (Homo sapiens); experiment: Stabilization of human recombinant alpha-L-iduronidase in human GM02846 cells assessed as reduction in heparan sulfate level at 10 to 500 uM incubated for 1 day followed by 1 day washout; type: cell-based; details: dose 10-500 µM
Alpha-L-iduronidase [14] = biological target: T1, Alpha-L-iduronidase; experiment: Inhibition of human seminal fluid alpha-L-iduronidase using 4-methylumbelliferyl-alpha-L-idosiduronic acid as substrate incubated for 1 hr by fluorescence based assay

Row | SMILES | IC50 (Alpha-L-iduronidase [1]) [µM] | Activity [3] | inhibition [6] [%] | further results
1 | O=C(Cc1cccc(OP(=O)(O)O)c1)NCC[C@@H]1O[C@@H](C(=O)O)[C@@H](O)[C@H](O)[C@H]1O | 4 |  |  | fold change (FC) [2]: 1.6
2 | O=C(O)[C@H]1[C@@H](O)[C@H](O)[C@@H](O)c2nnnn21 |  |  |  | Ki (Alpha-L-iduronidase [4]): 1300 µM
3 | O=C(/C=C/c1ccccc1)NCc1cn([C@@H]2O[C@@H](C(=O)O)[C@@H](O)[C@H](O)[C@H]2O)nn1 |  |  |  | inhibition [5]: 74%
4 | O=C(Cc1cccc(OP(=O)(O)O)c1)NCC[C@@H]1N[C@@H](C(=O)O)[C@@H](O)[C@H](O)[C@H]1O |  | inactive | < 10 | 
5 | O=C(O)[C@]1(F)O[C@@H](F)[C@H](O)[C@@H](O)[C@@H]1O |  |  |  | Ki (Alpha-L-iduronidase [7]): 1.2 µM
6 | O=C1N[C@@H](C(=O)O)[C@@H](O)[C@H](O)[C@H]1O |  |  |  | Ki (Alpha-L-iduronidase [4]): 94 µM
7 | NCC[C@@H]1O[C@@H](C(=O)O)[C@@H](O)[C@H](O)[C@H]1O | 6.7 |  |  | Ki (Alpha-L-iduronidase [8]): 4 µM; fold change (FC) [2]: 1.4; fold change (FC) [9]: 3; fold change (FC) [10]: > 1.6; Activity [11]: Active; Activity [12]: Dose-Dependent Effect; Activity [13]: Active
8 | O=C(Cc1ccccc1OP(=O)(O)O)NCC[C@@H]1O[C@@H](C(=O)O)[C@@H](O)[C@H](O)[C@H]1O | 1 | inactive |  | 
9 | O=C1O[C@H]([C@@H](O)C(=O)O)[C@H](O)[C@H]1O |  |  |  | IC50 (Alpha-L-iduronidase [14]): 40 µM

Further lines, with some results ahead:

Row | IC50 (Alpha-L-iduronidase [1]) [µM] | Activity [3] | inhibition [6] [%] | SMILES | further results
10 | 5.4 | Active |  | O=C(Cc1ccc(OP(=O)(O)O)cc1)NCC[C@@H]1O[C@@H](C(=O)O)[C@@H](O)[C@H](O)[C@H]1O | 
11 |  | inactive | 43 | O=C(Cc1ccccc1OP(=O)(O)O)NCC[C@@H]1N[C@@H](C(=O)O)[C@@H](O)[C@H](O)[C@H]1O | 
12 |  | inactive | < 10 | O=C(Cc1ccc(OP(=O)(O)O)cc1)NCC[C@@H]1N[C@@H](C(=O)O)[C@@H](O)[C@H](O)[C@H]1O | 
13 |  | inactive | < 10 | NCC[C@@H]1N[C@@H](C(=O)O)[C@@H](O)[C@H](O)[C@H]1O | 
